Assay results from patent US20180303863A1, “Pharmaceutical Composition for Treating STK11-Mutation Cancer Using Cardiac Glycosides” (INDUSTRY-ACADEMIC COOPERATION FOUNDATION SOOKMYUNG WOMEN'S …, priority 2014, published 2018).

Key:
[1] = system: STK11 mutant cell lines (NCI60 panel); assay: CLEA enrichment analysis of GI50 profiles on the NCI60 panel by STK11 genotype; type: cell-based; conditions: MOLT-4, A549, NCI-H460, NCI-H23, SK-MEL-5, DU-145, FIG. 3A
Protocol: To identify sensitivity patterns of the genotype-specific compounds, a subset of the compounds was selected using a GI50 profile pattern on a CLEA map.
First of all, a −logGI50 value of 8 (that is, GI50=0.01 μM) was chosen as a bipartite cutoff used to determine to which cell lines a compound was sensitive on a NCI60 panel. In this case, the compound was sensitive when the value is greater than 8, and was not sensitive when the value is less than 8.
Next, an enrichment score (an AUC value) was used to select the genotype-specific compounds in a CLEA assay.
An AUC value >80 and a P value <0.01 were used as cutoff values used to determine that a compound had significant sensitivity to certain genotypes. In this example, compounds showing strong potency (that is, a −logGI50 value of 8) to at least one cell line on the NCI60 panel were included.
As a result, a total of three non-overlapping compounds satisfying the above filtering requirements were compiled. Hierarchical clustering of these selected compounds was carried out on a category of STK11 genotypes. In this example, three main groups of compounds showing uniform sensitivity based on the mutant genotypes were identified. Such a cluster of compounds were sensitive to genetic mutations in an STK11 gene.

[2] = system: STK11-mutant lung cancer cell lines (A549, H460, H1993, H1395) and STK11-wild-type lung cancer cell lines (H226, H322M, H82, H524); assay: Cell viability (CellTiter-Blue) in STK11-mutant and STK11-wild-type lung cancer cell lines; type: cell-based; conditions: varying concentration, 72 hours; FIG. 5A
Protocol: NCI-60 lung cancer cell lines (NCI-H460, A549, NCI-H322M, and NCI-H226) were obtained from the U.S. National Cancer Institute (NCI DTP). All cells were grown in an RPMI medium (GIBCO) supplemented with 10% FBS (GIBCO) and penicillin/[…] (GIBCO), and kept at 37° C. in a humidified atmosphere of 5% CO2.
A total of three cardiac glycosides (chemicals) having the structures shown in FIG. 1 were screened in a lung cancer cell line. Digoxin, ouabain, and digitoxin were all purchased from Sigma Aldrich.
(§1) The cells were seeded in 96-well plates at a density of 2,000, 1,000, and 200 cells per well, and cultured for 3, 7, and 14 days, respectively. After 24 hours of seeding, the cells were treated with a chemical diluted with digitoxin and ouabain at working concentrations of 0.05 μM and 0.02 μM, respectively. The cells were again cultured for 72 hours (3 days), 7 days, and 14 days, and then the cell viability was measured using a CellTiter-Blue assay kit.

[3] = system: STK11-mutant cell line (A549) and cell line (A549-STK11) in which STK11 was restored into the wild type; assay: Cell viability (CellTiter-Blue) in A549 versus the STK11-restored A549-STK11 line; type: cell-based; conditions: for inhibition of cell growth in lung cancer cell lines A549 and A549-STK11: 96-well plate; for response of the STK11-restored cell line compared to the STK11-mutant cell line (inhibition of cell growth, TiterBlue): FIG. 5B
Protocol: as §1
In this case, each of a STK11-mutant cell line (A549) and a cell line (A549-STK11) in which STK11 was restored into the wild type were used as the lung cancer cell line.

[4] = system: A549 lung cancer cell line; assay: Mouse tumor xenograft model, A549; type: in vivo, athymic nude mice
Protocol: (§2) After athymic nude mice (Oriental Bio Inc) were purchased, the animal model was prepared according to the standard guidelines provided by the Catholic University of Korea-Institutional Animal Care and Use Committee (CUK-IACUC). A549 or A549-LKB 1 wt were subcutaneously injected (3×10^6 cells/ml) into the above animal model, and divided into three groups: (1) an untreated control group (n=10); (2) a group in which the mice were treated with digoxin at 60 ng/kg/body weight (n=10); (3) a group in which the mice were treated with digoxin at 180 ng/kg/body weight (n=10). Digoxin or a vehicle (1.9% DMSO/10% polyethylene glycol 400/l×PBS: a total volume of 200 μl) was orally administered three times a week for 5 weeks. Then, the diameter of each tumor base was measured, and the size of a tumor was then calculated according to the following equation: Tumor size (mm^3)=(length×width×height×0.52). Also, the mice were monitored until the tumor size reached 1 cm^3, and then the mice were sacrificed, and tumors were extracted from the mice.

[5] = system: cell line (A549-LKB1wt) in which STK11 was restored into the wild type; assay: Mouse tumor xenograft model, A549-LKB1wt (STK11 restored); type: in vivo, athymic nude mice; conditions: oral, three times a week for 5 weeks, 60 or 180 ng/kg/body weight; FIG. 10B
Protocol: as §2

How did the “sensitivity (GI50 profile) in 6 cell lines with STK11 mutation potential” value [1] turn out when `C[C@H]1O[C@@H](O[C@H]2[C@@H](O)C[C@H](O[C@H]3[C@@H](O)C[C@H](O[C@H]4CC[C@@]5(C)[C@H](CC[C@@H]6[C@@H]5C[C@@H](O)[C@]5(C)[C@@H](C7=CC(=O)OC7)CC[C@]65O)C4)O[C@@H]3C)O[C@@H]2C)C[C@H](O)[C@@H]1O` [digoxin] was run?
Its value is “relatively high sensitivity”.

And the “inhibition of cell growth, STK11-mutant compared to STK11-wild-type lung cancer cell lines” value [2]?
Its value is “specifically inhibited the cell growth”.

What about the “inhibition of cell growth in lung cancer cell lines A549 and A549-STK11” value [3] of the same molecule?
Its value is “the cell growth was inhibited”.

What about the “response of the STK11-restored cell line compared to the STK11-mutant cell line (inhibition of cell growth, TiterBlue)” value [3] of the same molecule?
The value was “resistant”.

And the “tumor growth in the STK11-mutant model compared to the wild-type STK11-expressing model” value ([4]; FIGS. 10C, 10D, 10E)?
The value was “selectively reduced”.

And the “growth of a tumor” value ([4]; oral, three times a week for 5 weeks, 60 or 180 ng/kg/body weight, FIG. 10A)?
Its value is “reduced in a time-dependent manner”.

And the “growth of a tumor” value [5]?
The value was “did not have the same effect”.

Which “sensitivity (GI50 profile) in 6 cell lines with STK11 mutation potential” value [1] does the source give for `C[C@@H]1O[C@@H](O[C@H]2C[C@@H](O)[C@]3(CO)[C@H]4[C@H](O)C[C@]5(C)[C@@H](C6=CC(=O)OC6)CC[C@]5(O)[C@@H]4CC[C@]3(O)C2)[C@H](O)[C@H](O)[C@H]1O` [ouabain] here?
The value was “relatively high sensitivity”.

And the “inhibition of cell growth, STK11-mutant compared to STK11-wild-type lung cancer cell lines” value [2]?
Its value is “specifically inhibited the cell growth”.

And the “inhibition of cell growth in lung cancer cell lines A549 and A549-STK11” value [3]?
The value was “the cell growth was inhibited”.

And the “response of the STK11-restored cell line compared to the STK11-mutant cell line (inhibition of cell growth, TiterBlue)” value [3]?
The value was “resistant”.

What does the source list for `C[C@H]1O[C@@H](O[C@H]2[C@@H](O)C[C@H](O[C@H]3[C@@H](O)C[C@H](O[C@H]4CC[C@@]5(C)[C@H](CC[C@@H]6[C@@H]5CC[C@]5(C)[C@@H](C7=CC(=O)OC7)CC[C@]65O)C4)O[C@@H]3C)O[C@@H]2C)C[C@H](O)[C@@H]1O` [digitoxin]?
sensitivity (GI50 profile) in 6 cell lines with STK11 mutation potential [1]: relatively high sensitivity; inhibition of cell growth, STK11-mutant compared to STK11-wild-type lung cancer cell lines [2]: specifically inhibited the cell growth; inhibition of cell growth in lung cancer cell lines A549 and A549-STK11 [3]: the cell growth was inhibited; response of the STK11-restored cell line compared to the STK11-mutant cell line (inhibition of cell growth, TiterBlue) [3]: resistant
